# Results: patent US20250353819A1, “ARYL HYDANTOIN COMPOUNDS AND METHODS OF USE” (priority 2022, published 2025)
# pIC50: −log10 of the molar value. Like-named read-outs stand apart in the source and are kept apart here.
# Key:
# [1] = In vitro metabolic stability, human liver microsomes; type: in vitro ADME
# Method: (§1) In Vitro Metabolic Stability. As described by Charman et al. (2020), metabolic stability assays were performed by incubating test compounds in liver microsomes at 37° C. and 0.4 mg/mL protein concentration. The metabolic reaction was initiated by the addition of an NADPH-regenerating system and quenched at various time points over a 60 min incubation period by the addition of acetonitrile containing diazepam as internal standard. Control samples (containing no NADPH) were included (and quenched at 2, 30 and 60 min) to monitor for potential degradation in the absence of cofactor.
# [2] = In vitro metabolic stability, mouse liver microsomes; type: in vitro ADME
# Method: as §1
# S. mansoni [3] = experiment: Antischistosomal screen in S. mansoni-infected mice; type: in vivo, Schistosoma mansoni; settings: for ED50: Schistosoma mansoni; for Worm burden reduction (WBR): single oral dose Ro 13-3978 100 mg/kg, praziquantel 400 mg/kg
# Description: Antischistosomal Screen. […] As described by Lombardo et al. (2019), cercariae of S. mansoni were obtained from infected Biomphalaria glabrata. By way of example, NMRI mice were infected subcutaneously with approximately 100 S. mansoni cercariae. […] Untreated mice (n=8) served as controls. At 21 d post-treatment, animals were killed by the CO2 method and dissected. Worms were removed by picking, then sexed and counted.
# LAPC4 cells = experiment: Androgen-dependent cell-based assay (DHT, LAPC4); settings: Homo sapiens
# Method: Androgen-Dependent Cell-based Assay. As described by Jones and Diamond (2008), LAPC4 cells were cultured in phenol red free RPMI 1640 media supplemented with antibiotics and 10% FBS. […] […] Mean-effect plots (log[compound] vs. log[fractional effect]) were generated to determine the IC50 values for each test compound or combinations of test compounds at constant ratios.
# [4] = Mouse exposure / pharmacokinetic studies; type: in vivo, mice; settings: male, Swiss outbred, mouse, in vivo
# [5] = Kinetic solubility (nephelometry); type: physicochemical
# Method: Kinetic Solubility. Compounds in DMSO (10 mg/mL) were diluted into either pH 6.5 phosphate buffer or 0.01 M HCl (approx. pH 2.0) with the final DMSO concentration being 1%. Samples were then analysed via nephelometry to determine a solubility range (Bevan and Lloyd, 2000).
# [6] = Partition coefficient (Log D) by gradient HPLC; type: physicochemical
# Description: Partition Coefficient. Partition coefficient values (Log D) of the test compounds were estimated by correlation of their chromatographic retention properties against the characteristics of a series of standard compounds with known partition coefficient values using gradient HPLC (modification of a method reported by Lombardo et al., 2001).
# androgen-receptor = experiment: DHT-induced (KLK3, FKBP5) and DHT-repressed (ZFP36L1) transcripts in LAPC4 cells; type: cell-based; settings: Compound IE up to 10 μM
# S. mansoni [7] = settings: cited from earlier work
# [8] = adult stage, single oral dose, mouse model, read-out: S. mansoni ED50, adult
# [9] = juvenile stage, single oral dose, mouse model, read-out: S. mansoni ED50, juvenile
# [10] = DHT-induced, androgen-dependent LAPC4 prostate cancer cell line, read-out: LAPC4 IC50
# [11] = pH 7.4, chromatographic estimate, read-out: gLogD7.4
Compound,"microsomal CLint ([1]; human, microsomes)","microsomal CLint ([2]; mouse, microsomes)",ED50 (S. mansoni [3]; [8]),ED50 (S. mansoni [3]; [9]),pIC50 (LAPC4 cells; [10]),"AUC(0-t) ([4]; po, 100 mg/kg)","Cmax ([4]; po, 100 mg/kg)",Sol2.0 ([5]; pH 2),Sol6.5 ([5]; pH 6.5),"chromatographic logD [6, 11]",also measured
"CC1(C(F)F)NC(=O)N(c2ccc(F)c(C(F)(F)F)c2)C1=O (stereo not drawn) [ID, 5-(Difluoromethyl)-3-(4-fluoro-3-(trifluoromethyl)phenyl)-5-methylimidazolidine-2,4-dione]",< 7 µL/min/mg,< 7 µL/min/mg,9 mg/kg,88 mg/kg,5.38,1650 µg·h/mL,42000 ng/mL,50-100/50-100 μg/mL,50-100/50-100 μg/mL,,chromatographic logD ([6]; pH 7.4): 3.2
"CC1(C)NC(=O)N(c2ccc([N+](=O)[O-])c(C(F)(F)F)c2)C1=O [nilutamide, reference compound]",,,,,,,,,,,"levels of DHT-induced (KLK3, FKBP5) and DHT-repressed (ZFP36L1) transcripts (androgen-receptor): inhibited the DHT-induced increase of KLK3 and FKBP5 and prevented the repression of ZFP36L1; antischistosomal activity (S. mansoni [7]; Keiser et al., 2010): very weak"
"CC1(C(F)(F)F)NC(=O)N(c2ccc(F)c(C(F)(F)F)c2)C1=O (stereo not drawn) [IA, 3-(4-Fluoro-3-(trifluoromethyl)phenyl)-5-methyl-5-(trifluoromethyl)imidazolidine-2,4-dione]",,,,,,,,,,3.5,"microsomal CLint ([1]; human liver microsomes, read-out: h CLint): < 7 µL/min/mg; microsomal CLint ([2]; mouse liver microsomes, read-out: m CLint): < 7 µL/min/mg; ED50 (S. mansoni [3]; po, read-out: S. mansoni ED50, adult): 14 mg/kg; ED50 (S. mansoni [3]; po, read-out: S. mansoni ED50, juvenile): 70 mg/kg; pIC50 (LAPC4 cells; LAPC4, read-out: LAPC4 IC50): 5.28; AUC(0-t) ([4]; 100 mg/kg PO in mice, read-out: AUC0-last): 966 µg·h/mL; Cmax ([4]; 100 mg/kg PO in mice, read-out: Cmax): 28000 ng/mL; Sol2.0 ([5]; kinetic solubility, 0.01 M HCl (approx. pH 2.0)): 25-50/25-50 μg/mL; Sol6.5 ([5]; kinetic solubility, pH 6.5 phosphate buffer): 25-50/25-50 μg/mL"
"O=C(C1CCCCC1)N1CC(=O)N2CCc3ccccc3C2C1 (stereo not drawn) [Praziquantel, praziquantel, reference compound]",,,,,,,,,,,"Worm burden reduction (WBR) (S. mansoni [3]; NOD-SCID (Prkdc^scid) mice): 83%; Worm burden reduction (WBR) (S. mansoni [3]; NOD-SCID (Prkdc^scid) mice, listed as Praziquantel (PZQ)): 83%; Worm burden reduction (WBR) (S. mansoni [3]; outbred NMRI mice): 96%; activity against juvenile stages of the parasite (S. mansoni [7]; schistosome mouse model, literature): no significant activity"
"[2H]C([2H])([2H])C1(C([2H])([2H])[2H])NC(=O)N(c2ccc(F)c(C(F)(F)F)c2)C1=O [IB, 3-(4-Fluoro-3-(trifluoromethyl)phenyl)-5,5-bis(methyl-d3)imidazolidine-2,4-dione]",< 7 µL/min/mg,< 7 µL/min/mg,7.3 mg/kg,73 mg/kg,4.89,1820 µg·h/mL,43000 ng/mL,>100/>100 μg/mL,>100/>100 μg/mL,2.7,
